Numbered stars: 1 amine (or outer) side, 2 acyl side, 3 side chain; on linkers, the order of the positions; unused ones are H or OH. Square brackets hold non-standard residues; d marks the D form. Peptide text beside a SMILES is read from it. X1 = O=C([C@H](CCCCNC1CC1c1ccccc1)N[*:1])[*:2]
Experiments:
[1] = target: T1, Amine oxidase [flavin-containing] B (Homo sapiens, UniProt P27338); experiment: Inhibition of human MAOB using (4S)-4,5-dihydro-2-(6-hydroxybenzothiazolyl)-4-thiazolecarboxylic acid substrate incubated for 60 mins by luciferin detection based chemiluminescence assay
T1 sequence (P27338 whole entry): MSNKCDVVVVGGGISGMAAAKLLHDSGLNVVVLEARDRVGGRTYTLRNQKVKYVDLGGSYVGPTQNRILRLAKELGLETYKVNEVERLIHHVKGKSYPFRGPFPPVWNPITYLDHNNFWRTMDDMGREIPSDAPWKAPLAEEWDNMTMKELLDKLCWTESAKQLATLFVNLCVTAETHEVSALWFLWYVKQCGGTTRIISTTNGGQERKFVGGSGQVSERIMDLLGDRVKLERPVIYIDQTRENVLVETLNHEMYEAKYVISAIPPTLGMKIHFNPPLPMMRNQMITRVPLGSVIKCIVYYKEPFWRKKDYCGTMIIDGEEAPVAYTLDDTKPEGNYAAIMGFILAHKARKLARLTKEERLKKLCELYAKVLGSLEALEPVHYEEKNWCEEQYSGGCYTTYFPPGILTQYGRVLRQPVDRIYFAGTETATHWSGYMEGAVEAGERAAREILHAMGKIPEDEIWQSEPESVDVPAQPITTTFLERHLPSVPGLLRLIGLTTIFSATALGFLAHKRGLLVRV

[2] = target: T2, Amine oxidase [flavin-containing] A (Homo sapiens, UniProt P21397); experiment: Inhibition of human MAOA using (4S)-4,5-dihydro-2-(6-hydroxybenzothiazolyl)-4-thiazolecarboxylic acid substrate incubated for 60 mins by luciferin detection based chemiluminescence assay
T2 sequence (P21397 whole entry): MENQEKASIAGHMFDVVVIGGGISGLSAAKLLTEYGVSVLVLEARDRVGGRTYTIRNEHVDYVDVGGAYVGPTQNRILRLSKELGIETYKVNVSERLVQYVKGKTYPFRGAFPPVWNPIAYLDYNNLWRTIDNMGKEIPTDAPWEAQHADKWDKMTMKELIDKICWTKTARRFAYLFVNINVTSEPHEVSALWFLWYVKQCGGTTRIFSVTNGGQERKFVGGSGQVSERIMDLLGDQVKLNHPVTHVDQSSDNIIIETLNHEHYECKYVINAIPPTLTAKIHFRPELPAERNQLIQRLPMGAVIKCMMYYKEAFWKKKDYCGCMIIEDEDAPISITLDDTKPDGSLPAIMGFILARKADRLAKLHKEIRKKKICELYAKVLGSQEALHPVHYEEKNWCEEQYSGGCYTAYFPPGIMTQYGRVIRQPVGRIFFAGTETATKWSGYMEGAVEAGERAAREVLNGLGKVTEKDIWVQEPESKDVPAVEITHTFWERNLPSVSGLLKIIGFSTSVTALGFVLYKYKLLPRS

[3] = target: Lysine-specific histone demethylase 1A (Homo sapiens, UniProt O60341); experiment: Inhibition of human recombinant LSD1 assessed as effect on H2O2 production incubated for 30 mins using methylated peptide substrate, Amplex red reagent and peroxidase by fluorimetry

Structure (SMILES) | IC50 [1] | IC50 [2] | IC50 [3]
C[C@H](N)C(=O)N[C@@H](CCCNC(=N)N)C(=O)N[C@H](C(=O)N[C@@H](CCCCNC1CC1c1ccccc1)C(=O)N[C@@H](CCC(N)=O)C(=O)N[C@H](C(=O)N[C@@H](C)C(=O)N[C@@H](CCCNC(=N)N)C(=O)N[C@@H](CCCCN)C(=O)O)[C@@H](C)O)[C@@H](C)O (some centres undefined) | > 100 µM | > 100 µM | –
C[C@H](N)C(=O)N[C@@H](CCCNC(=N)N)C(=O)N[C@H](C(=O)N[C@@H](CCCCNC1CC1c1ccccc1)C(=O)N[C@@H](CCC(N)=O)C(=O)N[C@H](C(=O)N[C@@H](C)C(=O)N[C@@H](CCCNC(=N)N)C(=O)N[C@@H](CCCCN)C(=O)N[C@@H](CO)C(=O)N[C@H](C(=O)NCC(=O)NCC(=O)N[C@@H](CCCCN)C(=O)N[C@@H](C)C(=O)N1CCC[C@H]1C(=O)N[C@@H](CCCNC(=N)N)C(=O)O)[C@@H](C)O)[C@@H](C)O)[C@@H](C)O (some centres undefined) (H-ART[X1]QTARKSTGGKAPR-OH) | > 100 µM | > 100 µM | –
C[C@H](N)C(=O)N[C@@H](CCCNC(=N)N)C(=O)N[C@H](C(=O)N[C@@H](CCCCNC1CC1c1ccccc1)C(=O)N[C@@H](CCC(N)=O)C(=O)O)[C@@H](C)O (some centres undefined) (H-ART[X1]Q-OH) | > 100 µM | > 100 µM | > 10 µM
C[C@H](N)C(=O)N[C@@H](CCCNC(=N)N)C(=O)N[C@H](C(=O)N[C@@H](CCCCNC1CC1c1ccccc1)C(=O)N[C@@H](CCC(N)=O)C(=O)N[C@H](C(=O)N[C@@H](C)C(=O)N[C@@H](CCCNC(=N)N)C(=O)N[C@@H](CCCCN)C(=O)N[C@@H](CO)C(=O)N[C@H](C(=O)NCC(=O)NCC(=O)O)[C@@H](C)O)[C@@H](C)O)[C@@H](C)O (some centres undefined) | > 100 µM | > 100 µM | –
